Where two headings read alike, the source gives them in different places.
Assays:
L1210 cells [1] = assay: L1210 tumor cell proliferation assay (Coulter counter); settings: for concentration giving almost total (maximal) inhibition of proliferation and viability: growth and viability; for IC50: read-out: IC50, inhibition of L1210 cell proliferation; for inhibition at 0.041 µM: read-out: % inhibition of L1210 cell proliferation
Description: (§1) FIG. 1. […] For tumor cell growth and viability, L1210 cells were respectively seeded in triplicate at initial densities of 1×10^4 and 1.11×10^4 cells/0.5 ml/well in RPMI 1640 medium containing 7.5% FCS and penicillin (100 IU/ml)-streptomycin (100 μg/ml), and grown for 4 days in the presence or absence (control) of 256 nM concentrations of the indicated compounds in a humidified incubator at 37° C. with 5% CO2 in air. Cell density was monitored using a Coulter counter. […] The ability of viable cells/0.5 ml to bioreduce 0.1 ml of MTS:PMS (20:1) reagent over a 3-h incubation period at 37° C. was assessed by measuring the absorbamce of the water-soluble formazan products at A490 nm.
FIG. 3. […] The protocol of the experiment was identical to that of FIG. 1. […] Drug concentrations are plotted on a logarithmic scale.
(§2) TT0 was purchased from Aldrich (Milwaukee, Wis.). All solutions of synthetic TTs and tricyclic pyrone H10, vincristine (VCR; a gift from Lilly Researeh Laboratories, Indianapolis, Ind.) and camptothecin (CPT; from Sigma Chemical Co., St Louis, Mo.) were dissolved and diluted in dimethyl sulfoxide (DMSO), whereas daunomycin (DAU) (from Sigma) solutions were prepared in 0.1 M potassium phosphate buffer, pH 7.4, containing 0.9% NaCl. Suspension cultures of murine L1210 lymphocytic leukemia cells (American Type Culture Collection, Rockville, Md.) were maintained in continuous exponential growth by twice-a-week passage in RPMI 1640 medium supplemented with 7.5% fortified bovine calf serum (FCS; HyClone Laboratories, Logan, Utah) and penicillin (100 IU/ml)-streptomycin (100 μg/ml), and incubated in the presence or absence of drugs at 37° C. in a humidified atmosphere containing 5% CO2. […] Control cells incubated in the absence of drugs were similarly treated with vehicle only and, in every experiment, all incubates received the same volume of solvent. For drug removal, incubates were spun at 200×g for 10 min, drug-containing supernatants were discarded, and intact cells were washed thrice with 1 ml of the above RPMI 1640 culture medium and resuspended in 0.5 ml of fresh medium for further incubation.
For tumor cell growth, L1210 cells were resuspended in fresh FCS-containing RPMI 1640 medium, plated at an initial density of 1×10^4 cells/0.5 ml, and incubated in 48-well Costar cell culture plates (Costar, Cambridge, Mass.). Except when otherwise specified, cells were grown for 4 days in the presence or absence of drugs and their density was monitored every 24 h using a Coulter counter (Coulter Electronics, Luton Beds, UK).

L1210 cells [2] = assay: cells; settings: for cytotoxicity at 0.041 µM: read-out: % inhibition of L1210 cell viability; for inhibitory effect on L1210 cell viability: 256 nM, 4 days
Description: as §1
FIG. 4. […] Cells were seeded in triplicate at initial densities of 100,000 or 11,100 cells/0.5 ml/well and respectively incubated for 2 or 4 days in the presence or absence (control) of the indicated concentrations of drugs, which are plotted on a logarithmic scale. The ability of viable cells/0.5 ml to bioreduce 0.1 ml of MTS:PMS (20:1) reagent over a 3-h incubation period was assessed as described in FIG. 1.
as §2
L1210, HL-60-S, HL60-RV and HL-60-R8 cells suspended in FCS-containing RPMI 1640 medium were grown in 48-well Costar cell culture plates for up to 4 days in the presence or absence of drugs to evaluate drug cytotoxicity.

HL-60-S cells = assay: Nucleoside transport in HL-60-S cells; assay type: cell-based, human; settings: for IC50: 15-min preincubation, 30 s
Excerpt: FIG. 15. Comparison of the concentration-dependent inhibitions of the cellular transport of purine (A) and pyrimidine (B) nucleosides by DAU (open symbols) and TT2 (closed symbols) in HL-60-S (circles), HL-60-RV (squares) and HL-60-R8 (triangles) cells in vitro. Results are expressed as % of ^3H-adenosine (26,032±2,239 cpm, 100±9%, striped area in A) and ^3H-thymidine (17,934±1,398 cpm, 100±8%, striped area in B) transported into vehicle-treated control cells over 30 s.
The MDR HL-60-RV and HL-60-R8 cells were developed in Melvin S. Center's laboratory (Kansas State University) and similarly maintained in RPMI 1640 medium in the absence of drugs (Marsh W, et al, Cancer Res 46: 4053-4057, 1986; McGrath T et al, and Center M S: Biochem Biophys Res Commun 145: 1171-1176, 1987; Marsh W and Center M S: Cancer Res 47: 5080-5086, 1987; McGrath T, et al, Biochem Pharmacol 38: 3611-3619, 1989; Marquardt D, et al, Cancer Res 50: 1426-1430, 1990; Marquardt D and Center M S: J Natl Cancer Inst 83: 1089-1109, 1991; Krishnamachary N and Center M S; Cancer Res 53: 3658-3661, 1993). Every 4 weeks, these HL-60-RV and HL-60-R8 sublines were exposed to 41 nM DAU for 48 h to stabilize their MDR phenotype. This concentration of DAU, which is not cytotoxic to MDR HL-60 sublines, was removed from the culture medium at least 48 h before experimentation. […] RFs were determined by dividing the IC50 of the MDR cells by that of the sensitive WT parent cell line.
L1210 cells (about 1.5×10^6 cells/0.5 ml) were preincubated for 15 min at 37° C. in the presence or absence of TTs and then exposed to 1 μCi of ^3H-thymidine for only 30 sec to assess the cellular uptake of nucleoside over such very short period of time. […] Cell lysates were mixed with 9 ml of Bio-Safe II (Researeh Products International) and counted to estimate the cellular uptake of ^3H-thymidine. Drug inhibition was expressed as % of ^3H-thymidine or ^3H-adenosine transported into vehicle-treated control cells over similar 30-sec period.

[3] = read-out: IC50 (concentration inhibiting by 50% the viability of L1210 leukemic cells), day 4, Table 2 series

## COC1=CC(=O)C2=C(C1=O)C1C3=C(C(=O)C=CC3=O)C2c2ccccc21 (stereo not drawn) [TT2, 2-Methoxy-9,10-dihydro-9,10-[1′,2′]benzenoanthracene-1,4,5,8-tetraone]
L1210 cells [1]
  times DAU is more cytostatic/cytotoxic than TT2: 3.5-6 times
L1210 cells [1]; 256 nM TT2, day 2
  % inhibition of L1210 cell proliferation: 44%
L1210 cells [1]; 256 nM, 4 days, 0.256 µM
  % inhibition of L1210 cell growth (cytostatic): 68%
L1210 cells [1]; day 4
  concentration giving almost total (maximal) inhibition of proliferation and viability: ≥ 640 nM
  IC50: 150 nM
L1210 cells [1]; day 2
  IC50: 300 nM
L1210 cells [2]; [3]
  IC50: 270 nM
L1210 cells [2]; read-out: IC50, inhibition of L1210 cell viability, day 2
  IC50: 250 nM
L1210 cells [2]; read-out: IC50, inhibition of L1210 cell viability, day 4
  IC50: 100 nM
HL-60-S cells; purine nucleoside, read-out: IC50, cellular transport of 3H-adenosine in HL-60-S cells
  IC50: 3300 nM
HL-60-S cells; pyrimidine nucleoside, read-out: IC50, cellular transport of 3H-thymidine in HL-60-S cells
  IC50: 2000 nM

## COc1cccc2c1C(=O)c1c(O)c3c(c(O)c1C2=O)C[C@@](O)(C(C)=O)C[C@@H]3O[C@H]1C[C@H](N)[C@H](O)[C@H](C)O1 [DAU, daunomycin, reference compound]
L1210 cells [1]; L1210, from IC50 values
  times DAU is more cytostatic than TT2: about 6 times
L1210 cells [1]; L1210, growth and viability, 4 days
  times DAU is more cytostatic/cytotoxic than TT2: 3.5-6 times
L1210 cells [1]; Mus musculus, L1210, 48 h
  inhibition at 0.041 µM: 42%
  IC50: 50 nM
L1210 cells [1]; Mus musculus, L1210, 96 h
  inhibition at 0.041 µM: 77%
  IC50: 25 nM
L1210 cells [1]; day 4
  concentration giving almost total (maximal) inhibition of proliferation and viability: 102 nM
L1210 cells [2]
  times DAU is more cytotoxic than TT2: about 3.5 times
L1210 cells [2]; Mus musculus, L1210, 48 h
  cytotoxicity at 0.041 µM: 32%
L1210 cells [2]; Mus musculus, L1210, 48 h, read-out: IC50, inhibition of L1210 cell viability
  IC50: 70 nM
L1210 cells [2]; Mus musculus, L1210, 96 h
  cytotoxicity at 0.041 µM: 65%
L1210 cells [2]; Mus musculus, L1210, 96 h, read-out: IC50 (concentration inhibiting by 50% the viability of L1210 leukemic cells)
  IC50: 41 nM
L1210 cells [2]; Mus musculus, L1210, 96 h, read-out: IC50, inhibition of L1210 cell viability
  IC50: 30 nM
HL-60-S cells
  effect on nucleoside transport in WT HL-60-S cells: fails to significantly inhibit

## COC(=O)C1=C(C(=O)OC)C[C@H]2[C@@H](C1)[C@@H](O)C1=C(C3C4=C(C1c1ccccc13)[C@@H](O)[C@H]1CC(C(=O)OC)=C(C(=O)OC)C[C@H]1[C@H]4O)[C@H]2O [TT12, (4aS*,5S*,7R*,12S*,14R*,7aR*,11aS*,14aR*)-Tetramethyl 1,4,4a,5,6,7,7a,8,11,11a,12,13,14,14a-tetradecahydro-5,7,12,14-tetrahydroxy-6,13-[1′,2′]benzenopentacene-2,3,9,10-tetracarboxylate]
L1210 cells [1]; 256 nM, 4 days
  inhibitory effect on L1210 cell growth: inactive
L1210 cells [2]
  inhibitory effect on L1210 cell viability: inactive

## COC1=C(Br)C(=O)C2=C(C1=O)C1C3=C(C(=O)C=C(N(C)C)C3=O)C2c2ccccc21 (stereo not drawn) [TT16, 2-Bromo-3-methoxy-6-(dimethylamino)-9,10-dihydro-9,10-[1′,2′]benzenoanthracene-1,4,5,8-tetraone]
L1210 cells [2]; [3]
  IC50: 300 nM

## COC(=O)C1=C(C(=O)OC)C[C@H]2C(=O)C3=C(C(=O)[C@H]2C1)C1C2=C(C(=O)[C@H]4CC(C(=O)OC)=C(C(=O)OC)C[C@H]4C2=O)C3c2ccccc21 [TT4, (4aS*,7aR*,11aS*,14aR*)-Tetramethyl 1,4,4a,5,6,7,7a,8,11,11a,12,13,14,14a-tetradecahydro-5,7,12,14-tetraoxo-6,13-[1′,2′]benzenopentacene-2,3,9,10-tetracarboxylate]
L1210 cells [1]; 256 nM, 4 days
  inhibitory effect on L1210 cell growth: inactive
L1210 cells [2]
  inhibitory effect on L1210 cell viability: inactive

Reference: patent US6828450B2, “Triptycene analogs” (Kansas State University Research Foundation, priority 2000, dated 2004)
